Residues, ends and D or L forms follow the SMILES beside them.
What was measured:
[1] = tested on: mature S. epidermidis biofilm; experiment: Confocal laser scanning microscopy of mature biofilm; format: cell-based, Staphylococcus epidermidis
Protocol: The effect of BiF2_5K7K against mature biofilm was also investigated. In short, overnight cultures of S. epidermidis were diluted to 10^7 CFU/mL with TSB and further incubated at 37°C for 24 h to form biofilms. Next, wells were rinsed with sterile water and mature biofilms was treated with BiF2_5K7K at concentration of MBEC50 and further incubated for 24 h. Subsequently, biofilms were washed again, then stained with green Alexa-ConA and LIVE/DEADTM BacLight™ Bacterial Viability Kit (Invitrogen™, Thermo Fisher, USA) for 15 min. After staining, 2.5% glutaraldehyde was used to fixed biofilms, then observed under CLSM as described above.

[2] = tested on: S. epidermidis biofilm matrix; experiment: Confocal laser scanning microscopy of biofilm formation (AAA model); format: cell-based, Staphylococcus epidermidis; conditions: at MBIC50 (7.81 µg/mL), 24 h; p-value < 0.001
Protocol: An Amsterdam active attachment (AAA) model was used to assess the effectiveness of BiF2_5K7K to inhibit biofilm formation as previously described. In a 24-well microplate, various concentrations of BiF2_5K7K were incubated overnight with 10^7 CFU/mL of S. epidermidis. The plate was then covered with a sanitary stainless-steel lid containing double-glass coverslips. Following 24 h of incubation at 37°C, the biofilms were washed, and then […] green Alexa-ConA (Sigma-Aldrich, USA) was applied for 30 min to stain the biofilms. After staining, biofilms were fixed for 3 h with 2.5% glutaraldehyde. Biofilm images were acquired using a confocal laser scanning microscope (CLSM; Carl-Zeiss/LSM800, Zeiss, Germany). The fluorescence intensity of each test was analysed using ZEN 2.1 (blue edition) software.

[3] = tested on: planktonic S. epidermidis; experiment: Time-killing analysis; format: cell-based, Staphylococcus epidermidis; conditions: for number of S. epidermidis: within 4 h, MHB, 37°C
Protocol: The time-dependent bactericidal activity of BiF2_5K7K against planktonic S. epidermidis was determined as previously described. In brief, mid-log phase bacteria in MHB were exposed to BiF2_5K7K at MIC and/or MBC for 24 h at 37°C. The bacterial suspensions were obtained at specific time point (0, 2, 4, 6, 8 and 24 h), and 10-fold serially diluted with PBS and then plated on TSA. Untreated bacterial suspension was served as a control. After incubation, the number of CFUs was determined by colony count.

[4] = tested on: S. epidermidis biofilm formation genes (ica, agr); experiment: Transcriptional analysis, real-time RT-PCR; format: cell-based, Staphylococcus epidermidis; conditions: at MBIC50, 24 h
Protocol: The expression level of S. epidermidis biofilm formation gene was investigated using a real-time reverse transcription-polymerase chain reaction. In brief, total RNA of S. epidermidis biofilm, both untreated and treated with BiF2_5K7K (at MBIC50 for 24 h), was extracted by a RNeasy PowerBiofilm Kit (Qiagen, USA) and immediately reverse transcribed to cDNA by iScript reserve transcription supermix (Biolabs, UK). RNAprotect Bacteria Reagent (Qiagen, USA) was used to preserve RNA during isolation. Remaining DNA was removed by treatment with DnaseI (Biolabs, UK). Real-time RT-PCR was done in duplicate using iTaq Universal SYBR Green Supermix (Bio-Rad, USA) with 5 ng of cDNA and […] of forward and reverse primers (Table S1) using a CFX96 Real-Time PCR Detection System (Bio-Rad, USA). The cycling condition was started with an initial denaturation at 95°C for 2 min, followed by 50 amplification cycles consisting of 95°C for 30 s, 56°C for 1 min, and 72°C for 1 min. Subsequently, a melting curve was generated from 65°C to 95°C at intervals of 1 s at the end of each run. To analyse the relative quantitation of gene expression, 2^− ΔΔCt method was used, and 16S ribosomal subunit (rRNA) was served as the reference or housekeeping gene.

[5] = tested on: all gram-negative bacterial strains; experiment: Mean MIC and therapeutic index, gram-negative strains; format: cell-based; conditions: four gram-negative strains
Protocol: The minimal inhibitory concentrations (MICs) of peptide derivatives versus planktonic bacteria were assessed using a modification of the broth microdilution assay previously described in the National Committee for Clinical Laboratory Standards (NCCLS). In brief, bacteria at mid-logarithmic growth were collected by centrifugation at 2,500 × g for 5 min. Subsequently, the pellet was resuspended and adjusted in Mueller-Hinton Broth (MHB; BD Bacto™, USA) to an OD620 of 0.05. Fifty µL of bacterial suspensions was transferred to 96-well microplates. Later, 50 µL of peptide derivatives at 0.98–250 µg/mL in 10 mM PBS, was added to wells and incubated for 24 h at 37°C with continuous shaking at 220 rpm. […] The experiments were done in three technical replicates and repeated independently.
The therapeutic index (TI) is widely used for evaluating a peptide’s efficacy and safety. It is the ratio between the minimum hemolytic concentration (MHC, the concentration causing 10% hemolysis) and the geometric mean (GM) value of the MIC [15]. […] While, both lysine-substituted peptides (BiF2_7K and BiF2_5K7K) had higher TIs against all tested biofilm-forming bacteria than did the two parent peptides, and the TI of BiF2_5K7K was higher than that of BiF2_7K.

[6] = tested on: human red blood cells (hRBCs); experiment: Hemolysis activity (hemoglobin release); format: cell-based; conditions: 1 h, 37°C
Protocol: The effect of peptides on human red blood cells (hRBCs) was assessed by observing the release of hemoglobin upon treated with peptide. Briefly, the hRBCs were obtained from healthy volunteers and subsequently diluted in 10 mM PBS to a concentration of 2% hRBCs. An equal volume of 2% hRBCs and peptide at concentration of 0.98–250 µg/mL in 10 mM PBS mixtures were incubated for 1 h at 37°C. Following incubation, the suspension was centrifuged, then supernatants were collected and transferred to 96-well microplates for measurement of absorbance at OD of 405 nm (OD405). This study was performed in accordance with the Thammasat University Ethics Committee (COA No. 066/2562). Written informed consent was obtained from all volunteers.

Question: With `CC[C@H](C)[C@H](NC(=O)[C@H](CCCCN)NC(=O)[C@H](CCCCN)NC(=O)[C@@H](NC(=O)[C@H](CC(C)C)NC(=O)[C@@H](N)Cc1ccccc1)C(C)C)C(=O)N[C@@H](CCCCN)C(=O)N[C@@H](CCCCN)C(=O)N[C@H](C(=O)N[C@@H](CC(C)C)C(=O)N[C@@H](CCCNC(=N)N)C(=O)N[C@@H](CCCNC(=N)N)C(N)=O)[C@@H](C)CC` [BiF2_5K7K] (H-FLVKKIKKILRR-NH2; N-terminus assumed) as the compound, how does the “fluorescence intensity ratio (live to dead cells), treated vs untreated” value ([1]; at MBEC50, 24 h, p-value < 0.01) read?
Answer: Its value is “significant difference”.

Question: And the “mature biofilm matrix (Alexa-ConA fluorescence intensity)” value ([1]; at MBEC50, 24 h treatment)?
Answer: Its value is “significant decrease”.

Question: And the “fluorescence intensity of Alexa Fluor 488 stained biofilm vs untreated control” value [2]?
Answer: Its value is “significantly lower”.

Question: What about the “number of S. epidermidis” value ([3]; peptide at MBC) of the same compound?
Answer: Its value is “approximately 10^3 CFU/mL”.

Question: And the regrowth ([3]; peptide at MIC, after 8 h)?
Answer: Its regrowth is “regrowth was observed”.

Question: And the “number of S. epidermidis” value ([3]; peptide at MIC)?
Answer: Its value is “approximately 10^3 CFU/mL”.

Question: And the “agrC and agrA gene expression” value [4]?
Answer: Its value is “neither agrC nor agrA gene expression changed at all”.

Question: What about the “expression of quorum-sensing genes agrD and agrB vs untreated control” value [4] of the same compound?
Answer: Its value is “reduced”.

Question: And the “levels of icaC or icaR genes” value [4]?
Answer: The value was “no alteration”.

Question: What about the “relative expression level of icaA, icaD and icaB genes” value ([4]; 2^-ΔΔCt, 16S rRNA reference, significantly upregulated) of the same compound?
Answer: Its value is “greater than 1”.

Question: What about the “GM-, geometric mean of MIC values from all gram-negative bacterial strains” value [5] of the same compound?
Answer: The value was 93.75 µg/mL.

Question: What about the hemolytic activity ([6]; at 250 µg/mL (maximum concentration tested)) of the same compound?
Answer: The hemolytic activity was “less than 10%”.

Question: What about the “MHC, minimum hemolytic concentration” value ([6]; peptide concentration causing 10% hemolysis of hRBCs, 2% hRBCs in 10 mM PBS, OD405) of the same compound?
Answer: The value was over 250 µg/mL.

From paper PMC11100219, “Dual-function antimicrobial-antibiofilm peptide hybrid to tackle biofilm-forming Staphylococcus epidermidis” (Annals of Clinical Microbiology and Antimicrobials, 2024)
